Laboratory results taken from patent US7445894B2, “Compositions and methods for detection and isolation of phosphorylated molecules” (priority 2002, dated 2008).

What was measured:
[1] = target: T1, lysozyme (Gallus gallus, UniProt P00698); assay: Fluorescence polarization of Compound 2-Ga3+ with non-phosphorylated control protein; assay type: binding; conditions: 1.0 μM Compound 2, 100 μM lysozyme plus 1 μM gallium chloride
T1 construct: purchased Sigma Chemical Company L-7651
Experimental: First, an assay was conducted with a (1) phosphoprotein (ovalbumin) and a (2) control non-phosphorylated protein (lysozyme). A modified binding solution containing 1.0 μM Compound 2 was incubated in 50 mM 2-(N-morpholino)ethanesulfonic acid (pH 3.0 to 3.5), 500 mM NaCl at room temperature in parallel to solutions containing, in addition, (a) 1 μM gallium chloride, (b) 100 μM lysozyme plus 1 μM gallium chloride, or (c) and 100 μM ovalbumin plus 1 μM gallium chloride. The fluorescence polarization of the resulting solutions was then measured in a fluorescence spectrophotometer with excitation at 530 nm and emission at 545 to 700 nm. The integrated polarized emission spectra yielded anisotropy “r values” of: r=0.10+/−0.003+/−0.02 (Compound 2 plus gallium); r=0.10+/−0.002 (Compound 2 plus lysozyme non-phosphorylated control); r=0.34+/−0.002 (Compound 2 plus gallium plus ovalbumin), indicating phosphorylation-dependent binding of the Compound 2 to this phosphoprotein (see FIG. 10A)

[2] = target: T2, pDSIP (Oryctolagus cuniculus, UniProt P01158); assay: Phosphopeptide detection on HydroGel microarray; conditions: monophosphorylated peptide, binding solution with gallium chloride
T2 construct: purchased SynPep Corporation
Experimental: The peptide was loaded in a two-fold dilution series from […] on the microarray.
Two peptides, Kemptide and pDSIP, were arrayed on to HydroGel coated slides (Perkin Elmer) from a source plate (384-well) with a concentration of 0.03125 to 2 mg/mL peptide in water. The amino acid sequence of Kemptide is LRRASLG (SEQ ID NO. 1, MW 771.9) the amino acid sequence of pDSIP is […] (SEQ ID NO. 2, MW 929.5), wherein the serine residue is substituted with PO2H. Arrays were spotted using a manual glass slide arrayer (V & P Scientific, San Diego, Calif.) fixed with 4 rows of 8 pins (32 total), ˜500 micron diameter spot size, […] horizontal pitch and 750 micron vertical pitch (pitch=center to center spacing of spots). The hand arrayer collected 6 nL of peptide from the source plate and transferred ˜6 nL to the array surface by direct contact. The resultant peptide concentration was 0.18 to 12 ng/spot. Peptides were arrayed in replicates of 6, resulting in an array of 84 spots. For specific detection of pDSIP, the phosphopeptide, slides were incubated for 1 hour on a rotator in 1 μM dye of compound 2 in buffer containing 0.5 M NaCl, 20% 1,2-propanediol, 1 μM GaCl3, and 0.05 M NaOAc, pH 4.0. Slides were then washed for 1 hour on a rotator in 0.05 M NaOAc, pH 4.0, containing 10% methanol followed by a 15-minute water wash. […]

[3] = target: T2, pDSIP; assay: Total phosphopeptide detection on microarray with binding solution; conditions: 1 μM Compound 2, 1 μM GaCl3, pH 4.0
Experimental: (A) Three pairs of peptides, the phosphorylated and the non-phosporylated forms of Kemptide, pp60 c-src and DSIP, were arrayed on to HydroGel coated slides (Perkin Elmer) from a source plate (384-well) with a concentration of 0.95 μg/ml-0.5 mg/ml peptide in water, using the BioChip Arrayer™ (Perkin Elmer) as described in Example 20. For specific detection of the phosphopeptides on the array, the slides were incubated for 45 minutes on a rotisserie in a binding solution comprising 1 μM Compound 2, in buffer containing 0.5 M NaCl, 20% 1,2 propanediol, 1 μM GaCl3, and 0.05 M sodium acetate, pH 4.0. Slides were then washed three times for 15 minutes on a rotisserie in 0.05 M sodium acetate, pH 4.0, containing 4% acetonitrile followed by a 15 minute water wash. Slides were then spun briefly in a microarray high-speed centrifuge affixed with a rotor with a slide holder (Telechem) at ˜6000 rpm to remove excess liquid. After slides were dry, the arrays were imaged using the ScanArray® 5000 XL Microarray Analysis System (Packard Instrument Co., Meriden, Conn.) using the 543.5 nm laser and 570 nm emission filter. […] Using the 543.5 nm excitation and 570 nm emission filter, there was no signal detected. Using the 632.8 nm excitation and 670 nm emission filter, pp60 c-src (pY) was specifically detected to a sensitivity of 5.2 pg.

T1 sequence (P00698 19-147): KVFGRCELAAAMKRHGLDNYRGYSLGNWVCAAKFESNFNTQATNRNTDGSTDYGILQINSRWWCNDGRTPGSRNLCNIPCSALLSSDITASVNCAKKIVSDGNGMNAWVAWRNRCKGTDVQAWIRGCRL

Substance: Rhod-5F [Compound 2]
- anisotropy r value [1]: 0.10+/−0.002
- amount detectable on HydroGel microarray [2]: 300 fg
- amount specifically labeled on microarray [3]: 1.3 to 2.6 pg
